Our source for the IC50 and Ki values is ChEMBL document CHEMBL1909046, “DrugMatrix in vitro pharmacology data”.

One data set addresses Cytochrome P450 2D6 (Homo sapiens, UniProt P10635). The conditions noted are these: bti-tn-5b1-4.
The target of data set [1] is T1, Neuropeptide Y receptor type 1 (Homo sapiens, UniProt P25929). Note: in other assays of this panel Not Active means under 50% inhibition at 10 µM.
T1 sequence (P25929 whole entry): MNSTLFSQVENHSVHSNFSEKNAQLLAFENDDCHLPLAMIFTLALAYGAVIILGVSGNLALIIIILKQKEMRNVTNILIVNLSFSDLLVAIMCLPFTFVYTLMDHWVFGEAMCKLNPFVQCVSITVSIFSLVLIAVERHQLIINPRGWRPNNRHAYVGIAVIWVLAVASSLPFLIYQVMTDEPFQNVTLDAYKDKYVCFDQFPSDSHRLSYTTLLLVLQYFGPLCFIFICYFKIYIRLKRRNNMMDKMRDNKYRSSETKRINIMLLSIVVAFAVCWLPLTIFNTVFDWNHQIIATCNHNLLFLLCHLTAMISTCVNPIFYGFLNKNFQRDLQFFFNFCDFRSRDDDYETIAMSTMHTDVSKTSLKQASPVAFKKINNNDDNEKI
In kind it is cell membranes, Membrane. The conditions noted are these: sk-n-mc.

In another data set the target is D(1A) dopamine receptor (Homo sapiens, UniProt P21728). The data set is described as follows: DRUGMATRIX: Dopamine D1 radioligand binding (ligand: [3H] SCH-23390). Format: cell membranes, CHO, Membrane. The conditions noted are these: Not Active = under 50% inhibition at 10 µM; for Ki: read-out: Ki.
D(1A) dopamine receptor, sequence (P21728 whole entry): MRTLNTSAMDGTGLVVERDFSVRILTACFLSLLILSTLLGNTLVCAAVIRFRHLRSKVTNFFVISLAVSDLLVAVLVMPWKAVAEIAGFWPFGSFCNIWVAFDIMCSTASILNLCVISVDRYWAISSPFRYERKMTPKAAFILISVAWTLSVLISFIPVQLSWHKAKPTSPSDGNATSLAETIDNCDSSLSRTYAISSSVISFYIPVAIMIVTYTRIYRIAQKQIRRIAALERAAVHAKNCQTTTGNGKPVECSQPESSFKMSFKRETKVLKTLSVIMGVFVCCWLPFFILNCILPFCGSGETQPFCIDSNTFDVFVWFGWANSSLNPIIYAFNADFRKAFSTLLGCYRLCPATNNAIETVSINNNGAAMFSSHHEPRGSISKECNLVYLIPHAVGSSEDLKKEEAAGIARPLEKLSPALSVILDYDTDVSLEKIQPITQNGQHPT
Data set [2] concerns the target T2, 5-hydroxytryptamine receptor 2C (Homo sapiens, UniProt P28335).
T2 sequence (P28335 whole entry): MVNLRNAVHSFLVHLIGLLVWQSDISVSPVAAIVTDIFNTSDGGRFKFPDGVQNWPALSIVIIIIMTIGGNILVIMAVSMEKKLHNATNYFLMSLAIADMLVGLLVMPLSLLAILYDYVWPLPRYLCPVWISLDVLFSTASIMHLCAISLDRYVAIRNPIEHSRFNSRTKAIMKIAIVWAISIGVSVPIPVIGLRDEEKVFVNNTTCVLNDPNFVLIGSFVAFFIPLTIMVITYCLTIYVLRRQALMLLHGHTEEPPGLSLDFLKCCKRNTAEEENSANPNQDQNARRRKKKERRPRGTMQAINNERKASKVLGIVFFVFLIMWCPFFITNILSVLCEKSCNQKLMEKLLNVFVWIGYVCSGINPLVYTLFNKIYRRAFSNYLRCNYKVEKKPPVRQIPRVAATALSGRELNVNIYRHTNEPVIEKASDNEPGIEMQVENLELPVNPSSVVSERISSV
The data set is described as follows: DRUGMATRIX: Serotonin (5-Hydroxytryptamine) 5-HT2C radioligand binding (ligand: [3H] Mesulergine). In kind it is cell membranes, CHO-K1, Membrane. The conditions noted are these: Not Active = under 50% inhibition at 10 µM; for Ki: read-out: Ki.

For data set [3], the target named is T3, 5-hydroxytryptamine receptor 1A (Rattus norvegicus, UniProt P19327). Note: in other assays of this panel Not Active means under 50% inhibition at 10 µM.
T3 sequence (P19327 whole entry): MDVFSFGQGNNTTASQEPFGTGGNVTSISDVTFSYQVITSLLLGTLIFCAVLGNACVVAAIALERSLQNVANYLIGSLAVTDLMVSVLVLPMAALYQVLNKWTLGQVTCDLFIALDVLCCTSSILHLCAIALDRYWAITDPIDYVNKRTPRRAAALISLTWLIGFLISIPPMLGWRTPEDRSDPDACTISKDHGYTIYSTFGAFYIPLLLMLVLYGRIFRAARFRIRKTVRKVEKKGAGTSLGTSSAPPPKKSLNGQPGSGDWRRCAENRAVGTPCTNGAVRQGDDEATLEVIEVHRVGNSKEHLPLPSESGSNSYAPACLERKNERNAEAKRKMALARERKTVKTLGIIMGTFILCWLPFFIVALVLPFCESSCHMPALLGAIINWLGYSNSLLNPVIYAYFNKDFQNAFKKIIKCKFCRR
In kind it is cell membranes, CHO-K1, Membrane. The conditions noted are these: for Ki: read-out: Ki.

The target of another data set is Mu-type opioid receptor (Homo sapiens, UniProt P35372). The data set is described as follows: DRUGMATRIX: Opiate mu (OP3, MOP) radioligand binding (ligand: [3H] Diprenorphine). Format: cell membranes, CHO-K1, Membrane. The conditions noted are these: Not Active = under 50% inhibition at 10 µM.
Mu-type opioid receptor, sequence (P35372 whole entry): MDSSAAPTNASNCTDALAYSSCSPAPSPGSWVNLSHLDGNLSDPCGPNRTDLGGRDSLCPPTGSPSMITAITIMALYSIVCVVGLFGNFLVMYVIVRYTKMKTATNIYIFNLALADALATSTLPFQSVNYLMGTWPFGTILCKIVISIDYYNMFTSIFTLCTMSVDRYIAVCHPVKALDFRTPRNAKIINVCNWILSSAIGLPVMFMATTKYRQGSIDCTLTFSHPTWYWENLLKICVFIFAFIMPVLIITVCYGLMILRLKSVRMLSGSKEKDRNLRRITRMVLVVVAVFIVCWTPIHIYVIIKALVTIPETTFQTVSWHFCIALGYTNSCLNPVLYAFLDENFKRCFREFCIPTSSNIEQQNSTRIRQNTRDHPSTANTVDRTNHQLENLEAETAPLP

Cytochrome P450 2D6, sequence (P10635 whole entry): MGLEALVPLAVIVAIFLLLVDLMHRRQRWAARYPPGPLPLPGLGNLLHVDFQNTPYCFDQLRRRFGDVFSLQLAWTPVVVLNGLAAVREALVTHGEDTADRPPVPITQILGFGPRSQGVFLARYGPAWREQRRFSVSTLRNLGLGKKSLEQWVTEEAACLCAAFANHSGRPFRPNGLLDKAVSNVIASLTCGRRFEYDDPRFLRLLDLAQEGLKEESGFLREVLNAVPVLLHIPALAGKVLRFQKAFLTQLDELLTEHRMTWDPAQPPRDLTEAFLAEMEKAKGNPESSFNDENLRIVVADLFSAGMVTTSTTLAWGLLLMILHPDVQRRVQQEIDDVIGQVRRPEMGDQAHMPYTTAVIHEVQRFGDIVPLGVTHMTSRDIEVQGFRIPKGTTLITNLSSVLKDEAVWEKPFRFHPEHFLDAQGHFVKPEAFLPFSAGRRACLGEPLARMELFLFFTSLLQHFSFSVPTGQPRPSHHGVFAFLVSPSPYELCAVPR

One may read the IC50 as the concentration that gives 50% inhibition. Broadly, the Ki is a measure of affinity in units of concentration, obtained from inhibition or displacement. In the case of `Cc1cc(C(C#N)c2ccc(Cl)cc2)c(Cl)cc1NC(=O)c1cc(I)cc(I)c1O` (stereo not given) [CLOSANTEL], the IC50 result (against Cytochrome P450 2D6; in data set [1]; on D(1A) dopamine receptor (cho); in data set [2] (cho-k1); in data set [3] (cho-k1); at Mu-type opioid receptor (cho-k1)) was “Not Active” each time. In addition, the inhibition constant Ki entry on Cytochrome P450 2D6 was “Not Active”.

In the case of `NC1=NC(=O)C(c2ccccc2)O1` (stereo not given) [PEMOLINE], the IC50 result (against Cytochrome P450 2D6; in data set [1]; on D(1A) dopamine receptor (cho); in data set [2] (cho-k1); in data set [3] (cho-k1); at Mu-type opioid receptor (cho-k1)) was “Not Active” throughout. Also, the Ki entry on Cytochrome P450 2D6 is on record as “Not Active”.

With `C[C@H]1c2cccc(O)c2C(=O)C2=C(O)[C@]3(O)C(=O)C(C(N)=O)=C(O)[C@@H](N(C)C)[C@@H]3[C@@H](O)[C@@H]21.O` [DOXYCYCLINE], the IC50 result (against Cytochrome P450 2D6; in data set [1]; on D(1A) dopamine receptor (cho); in data set [2] (cho-k1); in data set [3] (cho-k1); at Mu-type opioid receptor (cho-k1)) was “Not Active” in each case. The Ki result at Cytochrome P450 2D6 is on record as “Not Active”.

Turning to `C[C@H]1O[C@@H](O[C@H]2[C@@H](O)C[C@H](O[C@H]3[C@@H](O)C[C@H](O[C@H]4CC[C@@]5(C)[C@H](CC[C@@H]6[C@@H]5C[C@@H](O)[C@]5(C)[C@@H](C7=CC(=O)OC7)CC[C@]65O)C4)O[C@@H]3C)O[C@@H]2C)C[C@H](O)[C@@H]1O` [DIGOXIN], the IC50 result (against Cytochrome P450 2D6; in data set [1]; on D(1A) dopamine receptor (cho); in data set [2] (cho-k1); in data set [3] (cho-k1); at Mu-type opioid receptor (cho-k1)) was “Not Active” each time. The Ki entry on Cytochrome P450 2D6 was “Not Active”.

With `c1ccc2c(c1)c1cccc3ccc4cccc2c4c31` [BENZO[E]PYRENE], the IC50 entry (against Cytochrome P450 2D6; in data set [1]; at D(1A) dopamine receptor (cho); in data set [2] (cho-k1); in data set [3] (cho-k1); at Mu-type opioid receptor (cho-k1)) was “Not Active” in each case. The Ki entry on Cytochrome P450 2D6 is “Not Active”.

Regarding `Sc1ncnc2nc[nH]c12` [MERCAPTOPURINE ANHYDROUS], the IC50 result (at Cytochrome P450 2D6; in data set [1]; on D(1A) dopamine receptor (cho); in data set [2] (cho-k1); in data set [3] (cho-k1); at Mu-type opioid receptor (cho-k1)) was “Not Active” each time. The Ki entry at Cytochrome P450 2D6 is “Not Active”.

With `O=c1oc2ccccc2c(O)c1Cc1c(O)c2ccccc2oc1=O` [DICUMAROL], the IC50 entry (at Cytochrome P450 2D6; in data set [1]; on D(1A) dopamine receptor (cho); in data set [2] (cho-k1); in data set [3] (cho-k1); on Mu-type opioid receptor (cho-k1)) was “Not Active” in each case. For the same compound, the Ki entry at Cytochrome P450 2D6 is recorded as “Not Active”.

`Nc1nc(N)nc(-c2cc(Cl)ccc2Cl)n1.O=C(O)/C=C\C(=O)O` [IRSOGLADINE MALEATE]: the IC50 entry (against Cytochrome P450 2D6; in data set [1]; at D(1A) dopamine receptor (cho); in data set [2] (cho-k1); in data set [3] (cho-k1); on Mu-type opioid receptor (cho-k1)) was “Not Active” each time. Besides, the Ki entry on Cytochrome P450 2D6 was “Not Active”.

With `CC1(C)O[C@@H]2C[C@H]3[C@@H]4CCC5=CC(=O)CC[C@]5(C)[C@@]4(F)[C@@H](O)C[C@]3(C)[C@]2(C(=O)CCl)O1` [HALCINONIDE], the IC50 result (on Cytochrome P450 2D6; in data set [1]; on D(1A) dopamine receptor (cho); in data set [2] (cho-k1); in data set [3] (cho-k1); at Mu-type opioid receptor (cho-k1)) was “Not Active” throughout. Further, the Ki entry on Cytochrome P450 2D6 was “Not Active”.

Turning to `O=c1[nH]c(=O)n([C@H]2C[C@H](O)[C@@H](CO)O2)cc1I` [IDOXURIDINE], the concentration for half-maximal inhibition (IC50) entry (on Cytochrome P450 2D6; in data set [1]; on D(1A) dopamine receptor (cho); in data set [2] (cho-k1); in data set [3] (cho-k1); on Mu-type opioid receptor (cho-k1)) was “Not Active” each time. Moreover, the Ki result at Cytochrome P450 2D6 is given as “Not Active”.

As to `CC(C)C(=O)Nc1ccc([N+](=O)[O-])c(C(F)(F)F)c1` [FLUTAMIDE], the IC50 result (at Cytochrome P450 2D6; in data set [1]; at D(1A) dopamine receptor (cho); in data set [2] (cho-k1); in data set [3] (cho-k1); on Mu-type opioid receptor (cho-k1)) was “Not Active” each time. For the same compound, on Cytochrome P450 2D6, the Ki result is listed as “Not Active”.

Turning to `CCC1(c2ccc(N)cc2)CCC(=O)NC1=O` (stereo not given) [AMINOGLUTETHIMIDE], the IC50 result (against Cytochrome P450 2D6; in data set [1]; at D(1A) dopamine receptor (cho); in data set [2] (cho-k1); in data set [3] (cho-k1); on Mu-type opioid receptor (cho-k1)) was “Not Active” in each case. Besides, on Cytochrome P450 2D6, the Ki result is “Not Active”.

As for `CC(NC(C)(C)C)C(=O)c1cccc(Cl)c1` (stereo not given) [BUPROPION], the IC50 result (on Cytochrome P450 2D6; in data set [1]; on D(1A) dopamine receptor (cho); in data set [2] (cho-k1); in data set [3] (cho-k1); at Mu-type opioid receptor (cho-k1)) was “Not Active” each time. In addition, the Ki entry on Cytochrome P450 2D6 is given as “Not Active”.

`C=C(C)C1(O)OC(=O)C=C1OC` (stereo not given) [PENICILLIC ACID]: the IC50 result (against Cytochrome P450 2D6; in data set [1]; on D(1A) dopamine receptor (cho); in data set [2] (cho-k1); in data set [3] (cho-k1); on Mu-type opioid receptor (cho-k1)) was “Not Active” each time. Further, the Ki result at Cytochrome P450 2D6 is listed as “Not Active”.

On to `CCCC1O[C@@H]2C[C@H]3[C@@H]4CCC5=CC(=O)C=C[C@]5(C)[C@H]4[C@@H](O)C[C@]3(C)[C@]2(C(=O)CO)O1` (stereo not given in full) [BUDESONIDE], for which the IC50 result (against Cytochrome P450 2D6; in data set [1]; at D(1A) dopamine receptor (cho); in data set [2] (cho-k1); in data set [3] (cho-k1); at Mu-type opioid receptor (cho-k1)) was “Not Active” each time. Besides, on Cytochrome P450 2D6, the inhibition constant Ki entry was “Not Active”.

For the compound `COCCc1ccc(OCC(O)CNC(C)C)cc1` (stereo not given) [METOPROLOL], the half-maximal inhibitory concentration (IC50) entry (against Cytochrome P450 2D6; in data set [1]; on D(1A) dopamine receptor (cho); in data set [2] (cho-k1); in data set [3] (cho-k1); at Mu-type opioid receptor (cho-k1)) was “Not Active” throughout. For the same compound, the Ki result on Cytochrome P450 2D6 was “Not Active”.

With `CC1CC(OC(=O)C(O)c2ccccc2)CC(C)(C)C1` (stereo not given) [CYCLANDELATE], the IC50 entry (on Cytochrome P450 2D6; in data set [1]; at D(1A) dopamine receptor (cho); in data set [2] (cho-k1); in data set [3] (cho-k1); on Mu-type opioid receptor (cho-k1)) was “Not Active” throughout. Besides, the Ki result on Cytochrome P450 2D6 is on record as “Not Active”.

Turning to `CC(C)[C@H]1C(=O)N2CCC[C@H]2[C@]2(O)O[C@](NC(=O)[C@@H]3C=C4c5cccc6[nH]cc(c56)C[C@H]4N(C)C3)(C(C)C)C(=O)N12` [ERGOCORNINE], the IC50 entry against Cytochrome P450 2D6 is “Not Active”; in data set [1], “Not Active”; at D(1A) dopamine receptor (read-out: IC50), 294 nM; in data set [2] (read-out: IC50), 104 nM; in data set [3] (read-out: IC50), 3.11 nM; on Mu-type opioid receptor (cho-k1) it was “Not Active”. The Ki entry on Cytochrome P450 2D6 was “Not Active”; on D(1A) dopamine receptor, 147 nM; in data set [2], 55 nM; in data set [3], 1.78 nM.

Regarding `CC(C)[C@@]1(NC(=O)[C@@H]2C[C@@H]3c4cccc5[nH]cc(c45)C[C@H]3N(C)C2)O[C@@]2(O)[C@@H]3CCCN3C(=O)[C@H](Cc3ccccc3)N2C1=O.CS(=O)(=O)O` [DIHYDROERGOCRISTINE MESYLATE], the IC50 result at Cytochrome P450 2D6 was “Not Active”; in data set [1], “Not Active”; at D(1A) dopamine receptor (read-out: IC50), 1180 nM; in data set [2] (read-out: IC50) it was 239 nM; in data set [3] (read-out: IC50), 0.722 nM; at Mu-type opioid receptor (read-out: IC50), 850 nM. For the same compound, the Ki entry at Cytochrome P450 2D6 was “Not Active”; on D(1A) dopamine receptor it was 589 nM; in data set [2] it was 125 nM; in data set [3], 0.412 nM; on Mu-type opioid receptor, 345 nM.
